According to patent US20070213378A1, “Compounds for modulating cell proliferation, compositions and methods related thereto” (LymphoSign Inc., priority 2006, published 2007):

Legend:
Type in all cases: cell-based
[1] = tested on: MiaPACA-2; test: Cell proliferation assay (WST-1 and/or Alamar Blue), MiaPACA-2; settings: Homo sapiens, MIA PaCa-2; MiaPACA-2, pancreas carcinoma; 72 hours incubation
Experimental: (§1) Compounds of the present invention were assayed for activity using a WST-1 cell proliferation assay and/or an Alamar Blue-based assay.
(§2) The WST-1 cell proliferation assay employed was obtained from Chemicon International, Inc. of Temecula, Calif. Further information on assay materials and procedure is provided at www.chemicon.com. The WST-1 cell proliferation assay relies on the formation of a formazan from a tetrazolium salt by cellular enzymes, whereby the amount of the obtained formazan dye as an indicator of viability is directly proportional to the number of metabolically active cells in culture.
(§3) Following 72 hours incubation of the respective cells in 50 μL/well with test compound, 10 μL of WST-1 reagent was added to each well and its contents briefly mixed. The cells were then incubated for 2 hours before absorbance of the dye was measured at 450 nm using a commercial UV/VIS microplate reader (Molecular Devices).
(§4) The Alamar Blue assay employed the CellTiter-Blue™ Cell Viability Assay from Promega Corporation of Madison, Wis. Further information on assay materials and procedure is provided at www.promega.com. The Alamar Blue-based CellTiter-Blue assay indicates cell viability by measuring the ability of cells in culture to reduce resazurin to resorufin, whereby the intensity of the fluorescence signal is directly proportional to the number of live cells. […]

[2] = tested on: DU145; test: Cell proliferation assay (WST-1 and/or Alamar Blue), DU145; settings: Homo sapiens, DU-145; DU145, prostate carcinoma; 72 hours incubation
Experimental: as §1, §2, §3, §4

[3] = tested on: MDA-MB453; test: Cell proliferation assay (WST-1 and/or Alamar Blue), MDA-MB453; settings: Homo sapiens, MDA-MB-453; MDA-MB453, metastatic breast carcinoma; 72 hours incubation
Experimental: as §1, §2, §3, §4

[4] = tested on: NCI-H460; test: Cell proliferation assay (WST-1 and/or Alamar Blue), NCI-H460; settings: Homo sapiens; NCI-H460, large cell lung carcinoma; 72 hours incubation
Experimental: as §1, §2, §3, §4

[5] = tested on: ACHN; test: Cell proliferation assay (WST-1 and/or Alamar Blue), ACHN; settings: Homo sapiens, renal cell adenocarcinoma, 72 hours incubation
Experimental: as §1, §2, §3, §4

[6] = tested on: CCRF-CEM; test: Cell proliferation assay (WST-1 and/or Alamar Blue), CCRF-CEM; settings: human T-cell derived lymphoblastic leukemia, 72 hours incubation
Experimental: as §1, §2, §3, §4

[7] = tested on: 786-0; test: Cell proliferation assay (WST-1 and/or Alamar Blue), 786-0; settings: Homo sapiens; 786-0, renal cell adenocarcinoma; 72 hours incubation
Experimental: as §1, §2, §3, §4

[8] = tested on: MOLM-13; test: Cell proliferation assay (WST-1 and/or Alamar Blue), MOLM-13; settings: MOLM-13, human acute myeloid leukemia; 72 hours incubation
Experimental: as §1, §2, §3, §4

[9] = tested on: RS4-11; test: Cell proliferation assay (WST-1 and/or Alamar Blue), RS4-11; settings: RS4-11, human B-cell derived acute lymphoblastic leukemia; 72 hours incubation
Experimental: as §1, §2, §3, §4

[10] = tested on: MV4-11; test: Cell proliferation assay (WST-1 and/or Alamar Blue), MV4-11; settings: MV4-11, human acute myelo-monocytic leukemia; 72 hours incubation
Experimental: as §1, §2, §3, §4

[11] = tested on: DAOY; test: Cell proliferation assay (WST-1 and/or Alamar Blue), DAOY; settings: Homo sapiens, cerebellar medulloblastoma, 72 hours incubation
Experimental: as §1, §2, §3, §4

[12] = tested on: OCI-AML2; test: Cell proliferation assay (WST-1 and/or Alamar Blue), OCI-AML2; settings: OCI-AML2, human acute myeloid leukemia; 72 hours incubation
Experimental: as §1, §2, §3, §4

[13] = tested on: SKM-1; test: Cell proliferation assay (WST-1 and/or Alamar Blue), SKM-1; settings: SKM-1, human acute myeloid leukemia; 72 hours incubation
Experimental: as §1, §2, §3, §4

[14] = tested on: SUP-B15; test: Cell proliferation assay (WST-1 and/or Alamar Blue), SUP-B15; settings: SUP-B15, human B-cell derived acute lymphoblastic leukemia; 72 hours incubation
Experimental: as §1, §2, §3, §4

[15] = tested on: PC3; test: Cell proliferation assay (WST-1 and/or Alamar Blue), PC3; settings: Homo sapiens, PC-3; PC3, prostate adenocarcinoma; 72 hours incubation
Experimental: as §1, §2, §3, §4

[16] = tested on: PANC-1; test: Cell proliferation assay (WST-1 and/or Alamar Blue), PANC-1; settings: Homo sapiens; PANC-1, pancreas duct epithelial carcinoma; 72 hours incubation
Experimental: as §1, §2, §3, §4

[17] = tested on: C1; test: Cell proliferation assay (WST-1 and/or Alamar Blue), C1; settings: C1, human B-cell derived acute lymphoblastic leukemia; 72 hours incubation
Experimental: as §1, §2, §3, §4

[18] = tested on: OVCAR-5; test: Cell proliferation assay (WST-1 and/or Alamar Blue), OVCAR-5; settings: Homo sapiens; OVCAR-5, ovarian carcinoma; 72 hours incubation
Experimental: as §1, §2, §3, §4

[19] = tested on: A549; test: Cell proliferation assay (WST-1 and/or Alamar Blue), A549; settings: Homo sapiens; A549, lung carcinoma; 72 hours incubation
Experimental: as §1, §2, §3, §4

[20] = tested on: MCF-7; test: Cell proliferation assay (WST-1 and/or Alamar Blue), MCF-7; settings: Homo sapiens, MCF7; MCF-7, epithelial mammary adenocarcinoma; 72 hours incubation
Experimental: as §1, §2, §3, §4

[21] = tested on: SKOV-3; test: Cell proliferation assay (WST-1 and/or Alamar Blue), SKOV-3; settings: Homo sapiens, SK-OV-3; SKOV-3, ovarian adenocarcinoma; 72 hours incubation
Experimental: as §1, §2, §3, §4

[22] = tested on: HCT-116; test: Cell proliferation assay (WST-1 and/or Alamar Blue), HCT-116; settings: Homo sapiens; HCT-116, colorectal carcinoma; 72 hours incubation
Experimental: as §1, §2, §3, §4

[23] = tested on: SK-MEL-5; test: Cell proliferation assay (WST-1 and/or Alamar Blue), SK-MEL-5; settings: Homo sapiens; SK-MEL-5, malignant melanoma; 72 hours incubation
Experimental: as §1, §2, §3, §4

[24] = tested on: MOLT-4; test: Cell proliferation assay (WST-1 and/or Alamar Blue), MOLT-4; settings: MOLT-4, human T-cell derived lymphoblastic leukemia; 72 hours incubation
Experimental: as §1, §2, §3, §4

[25] = tested on: PEER; test: Cell proliferation assay (WST-1 and/or Alamar Blue), PEER; settings: human T-cell derived lymphoblastic leukemia, 72 hours incubation
Experimental: as §1, §2, §3, §4

[26] = tested on: KASUMI-1; test: Cell proliferation assay (WST-1 and/or Alamar Blue), KASUMI-1; settings: KASUMI-1, human acute myeloid leukemia; 72 hours incubation
Experimental: as §1, §2, §3, §4

IC50 [1]: 3.36 µM
IC50 [2]: 6.14 µM
IC50 [3]: 1.71 µM
IC50 [4]: 2.32 µM
IC50 [5]: 5 µM
IC50 [6]: 0.97 µM
IC50 [7]: 4.34 µM
IC50 [8]: 0.83 µM
IC50 [9]: 0.13 µM
IC50 [10]: 0.93 µM
IC50 [12]: 0.35 µM
IC50 [13]: 0.6 µM
IC50 [15]: 2.35 µM
IC50 [16]: > 20 µM
IC50 [18]: 6.65 µM
IC50 [19]: 19.1 µM
IC50 [20]: > 20 µM
IC50 [21]: 3.5 µM
IC50 [22]: 17.3 µM
IC50 [23]: 2.39 µM
IC50 [24]: 0.34 µM
SMILES: CC(C)C(=O)Nc1cccc(C(=O)Nc2nnc(CCc3ccccc3)s2)c1 [Compound A]
IC50 [11]: 2.7 µM
IC50 [14]: 4.82 µM
IC50 [17]: 0.57 µM
IC50 [25]: > 20 µM
IC50 [26]: ≥ 20 µM
